Results as given in PubChem BioAssay AID248 (DTP/NCI, 2004).
“And” between values parts separate entries of the source, which are not always exact repeats. Identical values can stand only once. Inconclusive results and toxic doses are left out. Cut-off read from the data, not from the text of the source: active = T/C of 150% or more; inactive = T/C below 125%.

System: L1210 leukemia ip in BDF1 mice, survival T/C
Assay: NCI In Vivo Anticancer Drug Screen. Data for tumor model L1210 Leukemia (intraperitoneal) in B6D2F1 (BDF1) mice
Settings: higher = longer survival
Method in brief: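 Transplanted-tumor mice were given test agent; controls received vehicle only. Survival readings from the two groups were divided (treated over control).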

[1] = endpoint: mean survival time, dose: 50.0 mg/kg/injection, schedule: Q01DX001 (ip), vehicle: saline
[2] = endpoint: mean survival time, dose: 100.0 mg/kg/injection, schedule: Q01DX001 (ip), vehicle: saline
[3] = endpoint: mean survival time, dose: 200.0 mg/kg/injection, schedule: Q01DX001 (ip), vehicle: saline
[4] = endpoint: mean survival time, dose: 400.0 mg/kg/injection, schedule: Q01DX001 (ip), vehicle: saline

Measured: T/C

CC/C(=C(/CC)c1ccc(O)cc1)c1ccc(O)cc1
inactive: endpoint: mean survival time, dose: 6.44 mg/kg/injection, schedule: Q01DX Z (sc), vehicle: steriod suspending solution 98 % of control | endpoint: mean survival time, dose: 12.88 mg/kg/injection, schedule: Q01DX Z (sc), vehicle: steriod suspending solution 109 % of control | endpoint: mean survival time, dose: 25.0 mg/kg/injection, schedule: Q01DX009 (ip), vehicle: carboxymethylcellulose (CMC) 87 % of control | endpoint: mean survival time, dose: 25.75 mg/kg/injection, schedule: Q01DX Z (sc), vehicle: steriod suspending solution 107 % of control | [1] 90 % of control | endpoint: mean survival time, dose: 50.0 mg/kg/injection, schedule: Q01DX009 (ip), vehicle: carboxymethylcellulose (CMC) 94 % of control | endpoint: mean survival time, dose: 51.5 mg/kg/injection, schedule: Q01DX Z (sc), vehicle: steriod suspending solution 100 % of control | [2] 94 % of control | endpoint: mean survival time, dose: 100.0 mg/kg/injection, schedule: Q01DX009 (ip), vehicle: carboxymethylcellulose (CMC) 95 % of control | [3] 95 % of control | endpoint: mean survival time, dose: 200.0 mg/kg/injection, schedule: Q01DX009 (ip), vehicle: carboxymethylcellulose (CMC) 91 % of control | [4] 87 % of control | endpoint: median survival time, dose: 8.0 mg/kg/injection, schedule: Q03HX016 (ip), vehicle: saline with Tween-80 97 % of control | endpoint: median survival time, dose: 8.0 mg/kg/injection, schedule: Q03HX024 (ip), vehicle: saline with Tween-80 98 % of control | endpoint: median survival time, dose: 12.5 mg/kg/injection, schedule: Q01DX009 (sc), vehicle: steriod suspending solution 100 % of control and 111 % of control | endpoint: median survival time, dose: 16.0 mg/kg/injection, schedule: Q01DX009 (ip), vehicle: saline with Tween-80 113 % of control | endpoint: median survival time, dose: 16.0 mg/kg/injection, schedule: Q03HX008 (ip), vehicle: saline with Tween-80 101 % of control | endpoint: median survival time, dose: 16.0 mg/kg/injection, schedule: Q03HX016 (ip), vehicle: saline with Tween-80 97 % of control | endpoint: median survival time, dose: 16.0 mg/kg/injection, schedule: Q03HX024 (ip), vehicle: saline with Tween-80 91 % of control | endpoint: median survival time, dose: 25.0 mg/kg/injection, schedule: Q01DX009 (sc), vehicle: steriod suspending solution 100 % of control and 106 % of control | endpoint: median survival time, dose: 32.0 mg/kg/injection, schedule: Q01DX009 (ip), vehicle: saline with Tween-80 110 % of control | endpoint: median survival time, dose: 32.0 mg/kg/injection, schedule: Q03HX008 (ip), vehicle: saline with Tween-80 97 % of control | endpoint: median survival time, dose: 32.0 mg/kg/injection, schedule: Q03HX016 (ip), vehicle: saline with Tween-80 97 % of control | endpoint: median survival time, dose: 32.0 mg/kg/injection, schedule: Q03HX024 (ip), vehicle: saline with Tween-80 98 % of control | endpoint: median survival time, dose: 50.0 mg/kg/injection, schedule: Q01DX009 (sc), vehicle: steriod suspending solution 100 % of control and 105 % of control | endpoint: median survival time, dose: 64.0 mg/kg/injection, schedule: Q01DX009 (ip), vehicle: saline with Tween-80 103 % of control | endpoint: median survival time, dose: 64.0 mg/kg/injection, schedule: Q03HX008 (ip), vehicle: saline with Tween-80 103 % of control | endpoint: median survival time, dose: 64.0 mg/kg/injection, schedule: Q03HX016 (ip), vehicle: saline with Tween-80 100 % of control | endpoint: median survival time, dose: 64.0 mg/kg/injection, schedule: Q03HX024 (ip), vehicle: saline with Tween-80 94 % of control | endpoint: median survival time, dose: 64.0 mg/kg/injection, schedule: Q04DX003 (ip), vehicle: saline with Tween-80 100 % of control | endpoint: median survival time, dose: 64.0 mg/kg/injection, schedule: Q08DX002 (ip), vehicle: saline with Tween-80 106 % of control | endpoint: median survival time, dose: 100.0 mg/kg/injection, schedule: Q01DX009 (sc), vehicle: steriod suspending solution 100 % of control and 105 % of control | endpoint: median survival time, dose: 128.0 mg/kg/injection, schedule: Q01DX001 (ip), vehicle: saline with Tween-80 107 % of control | endpoint: median survival time, dose: 128.0 mg/kg/injection, schedule: Q01DX009 (ip), vehicle: saline with Tween-80 102 % of control | endpoint: median survival time, dose: 128.0 mg/kg/injection, schedule: Q04DX003 (ip), vehicle: saline with Tween-80 101 % of control | endpoint: median survival time, dose: 128.0 mg/kg/injection, schedule: Q08DX002 (ip), vehicle: saline with Tween-80 104 % of control | endpoint: median survival time, dose: 256.0 mg/kg/injection, schedule: Q01DX001 (ip), vehicle: saline with Tween-80 109 % of control | endpoint: median survival time, dose: 256.0 mg/kg/injection, schedule: Q04DX003 (ip), vehicle: saline with Tween-80 107 % of control | endpoint: median survival time, dose: 256.0 mg/kg/injection, schedule: Q08DX002 (ip), vehicle: saline with Tween-80 98 % of control | endpoint: median survival time, dose: 512.0 mg/kg/injection, schedule: Q01DX001 (ip), vehicle: saline with Tween-80 108 % of control | endpoint: median survival time, dose: 512.0 mg/kg/injection, schedule: Q08DX002 (ip), vehicle: saline with Tween-80 92 % of control | endpoint: median survival time, dose: 1024.0 mg/kg/injection, schedule: Q08DX002 (ip), vehicle: saline with Tween-80 102 % of control | endpoint: median survival time, dose: 2048.0 mg/kg/injection, schedule: Q08DX002 (ip), vehicle: saline with Tween-80 102 % of control

Cc1cc(=O)n(Cc2ccccc2)c(O)c1C
inactive: endpoint: mean survival time, dose: 100.0 mg/kg/injection, schedule: Q01DX009 (ip), vehicle: Klucel (hydroxypropylcellulose) (HPC) 95 % of control | endpoint: mean survival time, dose: 100.0 mg/kg/injection, schedule: Q04DX003 (ip), vehicle: Klucel (hydroxypropylcellulose) (HPC) 94 % of control | endpoint: mean survival time, dose: 200.0 mg/kg/injection, schedule: Q01DX009 (ip), vehicle: Klucel (hydroxypropylcellulose) (HPC) 91 % of control | endpoint: mean survival time, dose: 200.0 mg/kg/injection, schedule: Q04DX003 (ip), vehicle: Klucel (hydroxypropylcellulose) (HPC) 94 % of control | endpoint: mean survival time, dose: 400.0 mg/kg/injection, schedule: Q01DX009 (ip), vehicle: Klucel (hydroxypropylcellulose) (HPC) 93 % of control | endpoint: mean survival time, dose: 400.0 mg/kg/injection, schedule: Q04DX003 (ip), vehicle: Klucel (hydroxypropylcellulose) (HPC) 98 % of control

CN1C2CCC1CNC2
inactive: endpoint: mean survival time, dose: 100.0 mg/kg/injection, schedule: Q01DX009 (ip), vehicle: saline 101 % of control | endpoint: mean survival time, dose: 200.0 mg/kg/injection, schedule: Q01DX009 (ip), vehicle: saline 96 % of control | endpoint: mean survival time, dose: 400.0 mg/kg/injection, schedule: Q01DX009 (ip), vehicle: saline 90 % of control

CCCCOP(=O)(OCCCC)C(C)c1ccccc1 (centres undefined)
inactive: endpoint: mean survival time, dose: 12.5 mg/kg/injection, schedule: Q04DX003 (ip), vehicle: saline with Tween-80 104 % of control | endpoint: mean survival time, dose: 25.0 mg/kg/injection, schedule: Q01DX009 (ip), vehicle: saline with Tween-80 95 % of control and 100 % of control | endpoint: mean survival time, dose: 25.0 mg/kg/injection, schedule: Q04DX002 (ip), vehicle: saline with Tween-80 95 % of control and 87 % of control | endpoint: mean survival time, dose: 25.0 mg/kg/injection, schedule: Q04DX003 (ip), vehicle: saline with Tween-80 98 % of control | endpoint: mean survival time, dose: 50.0 mg/kg/injection, schedule: Q01DX001 (ip), vehicle: saline with Tween-80 107 % of control | endpoint: mean survival time, dose: 50.0 mg/kg/injection, schedule: Q01DX009 (ip), vehicle: saline with Tween-80 99 % of control and 104 % of control | endpoint: mean survival time, dose: 50.0 mg/kg/injection, schedule: Q04DX002 (ip), vehicle: saline with Tween-80 103 % of control and 90 % of control | endpoint: mean survival time, dose: 50.0 mg/kg/injection, schedule: Q04DX003 (ip), vehicle: saline with Tween-80 93 % of control and 106 % of control | endpoint: mean survival time, dose: 100.0 mg/kg/injection, schedule: Q01DX001 (ip), vehicle: saline with Tween-80 107 % of control | endpoint: mean survival time, dose: 100.0 mg/kg/injection, schedule: Q04DX002 (ip), vehicle: saline with Tween-80 94 % of control and 96 % of control and 108 % of control | endpoint: mean survival time, dose: 200.0 mg/kg/injection, schedule: Q01DX001 (ip), vehicle: saline with Tween-80 94 % of control

Cn1nc(-c2ccc([N+](=O)[O-])o2)nc1N
inactive: [1] 98 % of control | [2] 96 % of control | [3] 98 % of control | [4] 104 % of control

CC(=O)OC1CC2CCC3C4CC=C(C(C)=O)C4(C)CCC3C2(C)CC1OC(C)=O (centres undefined)
inactive: endpoint: mean survival time, dose: 75.0 mg/kg/injection, schedule: Q04DX003 (ip), vehicle: other 97 % of control | endpoint: mean survival time, dose: 150.0 mg/kg/injection, schedule: Q04DX003 (ip), vehicle: other 97 % of control | endpoint: mean survival time, dose: 300.0 mg/kg/injection, schedule: Q04DX003 (ip), vehicle: other 94 % of control

CC1(C)N=C(N)N=C(N)N1c1ccccc1I
inactive: endpoint: mean survival time, dose: 12.5 mg/kg/injection, schedule: Q01DX009 (ip), vehicle: Klucel (hydroxypropylcellulose) (HPC) 100 % of control | endpoint: mean survival time, dose: 25.0 mg/kg/injection, schedule: Q01DX009 (ip), vehicle: Klucel (hydroxypropylcellulose) (HPC) 110 % of control | endpoint: mean survival time, dose: 50.0 mg/kg/injection, schedule: Q01DX009 (ip), vehicle: Klucel (hydroxypropylcellulose) (HPC) 97 % of control

COc1cc2c(c3oc4c(c(=O)c13)CCCC4)CCC(C)(C)O2
inactive: endpoint: mean survival time, dose: 100.0 mg/kg/injection, schedule: Q04DX003 (ip), vehicle: saline 91 % of control | endpoint: mean survival time, dose: 200.0 mg/kg/injection, schedule: Q04DX003 (ip), vehicle: saline 94 % of control | endpoint: mean survival time, dose: 400.0 mg/kg/injection, schedule: Q04DX003 (ip), vehicle: saline 94 % of control

CC(CN=Cc1ccccc1[O-])N=Cc1ccccc1[O-].[O]=[V] (centres undefined)
inactive: endpoint: mean survival time, dose: 5.0 mg/kg/injection, schedule: Q01DX009 (ip), vehicle: saline with Tween-80 94 % of control | endpoint: mean survival time, dose: 10.0 mg/kg/injection, schedule: Q01DX009 (ip), vehicle: saline with Tween-80 91 % of control | endpoint: mean survival time, dose: 20.0 mg/kg/injection, schedule: Q01DX009 (ip), vehicle: saline with Tween-80 97 % of control
